{"source": "patent EP1149096B1", "about": "“TRICYCLIC PYRIDINE N-OXIDES VASOPRESSIN AGONISTS” (Wyeth, priority 1999, dated 2000)", "system": "Vasopressin V2", "assay": "Vasopressin V2 agonist effects in normal conscious water-loaded rats", "format": "in vivo", "conditions": "oral dose of 10 mg/kg, urine collected for four hours after dosing, Sprague-Dawley (CD) rats, water-loaded 30 ml/kg; for Changes in Urinary Osmolality: Percent changes in osmolality vs. control; for Urine Volume (% decrease): Percent decrease in urine volume vs. control", "source_text": "Vasopressin V2 Agonist Effects of Test Compounds in Normal Conscious Water-Loaded Rats:\nMale or female normotensive Sprague-Dawley rats (Charles River Laboratories, Inc., Kingston, NY) of 350-500 g body weight were supplied with standard rodent diet (Purina Rodent Lab. Chow 5001) and water ad libitum. On the day of test, rats were placed individually into metabolic cages equipped with devices to separate the feces from the urine and containers for collection of urine. A test compound or a reference agent was given at an oral dose of 10 mg/kg in a volume of 10 ml/kg. The vehicle used was 20% dimethylsulfoxide (DMSO) in 2.5% preboiled corn starch. Thirty minutes after dosing the test compound, rats were gavaged with water at 30 ml/kg into the stomach using a feeding needle. During the test, rats were not provided with water or food. Urine was collected for four hours after dosing of the test compound. At the end of four hours, urine volume was measured. Urinary osmolality was determined using a Fiske One-Ten Osmometer (Fiske Associates, Norwood, MA, 02062) or an Advanced CRYOMATIC Osmometer, Model 3C2 (Advanced Instruments, Norwood, MA). Determinations of Na^+, K^+ and Cl^- ion were carried out using ion specific electrodes in a Beckman SYNCHRON EL-ISE Electrolyte System analyzer. The urinary osmolality should increase proportionally. In the screening test, two rats were used for each compound. If the difference in the urine volume of the two rats was greater than 50%, a third rat was used."}
{"molecule": "Cc1ccn(-c2ccc(C(=O)N3Cc4ccc[n+]([O-])c4Nc4ccccc43)c(Br)c2)n1", "note": "[Example 3, [2-Bromo-4-(3-methyl-1H-pyrazol-1-yl)-phenyl]-(6,11-dihydro-5H-pyrido [2,3-b][1,5]benzodiazepin-6-yl)-methanone-1-oxide]", "values": [{"measurement": "Changes in Urinary Osmolality", "value": 747, "unit": "%"}, {"measurement": "Urine Volume (% decrease)", "value": 90, "unit": "%"}]}
{"molecule": "Cc1ccn(-c2ccc(C(=O)N3Cc4ccc[n+]([O-])c4Nc4ccccc43)c(C(F)(F)F)c2)n1", "note": "[Example 4, 4-[(3-Methyl-1H-pyrazol-1-yl)-2-(trifluoromethyl)-phenyl]-(6,11-dihydro-5H-pyrido[2,3-b][1,5]benzodiazepin-6-yl)-methanone 1-oxide]", "values": [{"measurement": "Changes in Urinary Osmolality", "value": 331, "unit": "%"}, {"measurement": "Urine Volume (% decrease)", "value": 72, "unit": "%"}]}
{"molecule": "Cc1ccn(-c2ccc(C(=O)N3Cc4ccc[n+]([O-])c4Nc4ccccc43)c(Cl)c2)n1", "note": "[Example 1, [2-Chloro-4-(3-methyl-1H-pyrazol-1-yl)-phenyl]-(6,11-dihydro-5H-pyrido[2,3-b][1,5]benzodiazepin-6-yl)-methanone-1-oxide]", "values": [{"measurement": "Changes in Urinary Osmolality", "value": 753, "unit": "%"}, {"measurement": "Urine Volume (% decrease)", "value": 80, "unit": "%"}]}
